Laboratory results from patent US20240287043A1, “KETOAMIDE DERIVATIVE AND APPLICATION THEREOF” (GUANGDONG RAYNOVENT BIOTECH CO., LTD., priority 2021, published 2024).
Read-outs that look alike come from different tables or passages of the source.

Key:
[1] = Cytotoxicity assay in MRC5 cells without viral infection (CellTiter Glo); type: cell-based; conditions: human, no viral infection
Source text: The calculation formulas were as below: […]

in vivo = conditions: male, C57BL/6J, mouse
HCoV OC43 = test: In vitro anti-coronavirus activity using a cytopathic model (CPE, CellTiter Glo); conditions: Betacoronavirus 1, OC43, MRC5, 120 h
SARS-COV-2 Mpro = SARS-COV-2 Mpro (Severe acute respiratory syndrome coronavirus 2, UniProt P0DTD1); test: In vitro inhibitory activity against Mpro protease of novel coronavirus (fluorescence substrate assay); type: biochemical; conditions: 25 nM Mpro protein, 25 μM substrate
[2] = male, C57BL/6J, mouse, in vivo

Row | SMILES | CC50 at 5 days [1] | AUC(0-t) (in vivo; iv, 3 mg/kg) | AUC(0-t) (in vivo; po, 10 mg/kg) | Tmax (in vivo; po, 10 mg/kg) | bioavailability (in vivo; po, 10 mg/kg) | half-life (in vivo; po, 10 mg/kg) | EC50 (HCoV OC43) | IC50 (SARS-COV-2 Mpro) | further results
1 | O=C(NC1CCCC1)C(=O)[C@H](C[C@@H]1CCNC1=O)NC(=O)[C@@H]1[C@H]2CCC[C@H]2CN1C(=O)[C@@H](NC(=O)C(F)(F)F)C1CCCCC1 [Compound 1] | > 10000 nM | 7.79 µM·h | 5.7 µM·h | 2 h | 22% | 2.63 h | 259 nM | – | Vd (in vivo; iv, 3 mg/kg): 1.38 L/kg; clearance (in vivo; iv, 3 mg/kg): 10.1 mL/min/kg; concentration at 0.083 h (in vivo; iv, 3 mg/kg): 6770 nM; concentration at 0.25 h (in vivo; iv, 3 mg/kg): 5530 nM; concentration at 0.5 h (in vivo; iv, 3 mg/kg): 3930 nM; concentration at 1 h (in vivo; iv, 3 mg/kg): 1960 nM; concentration at 2 h (in vivo; iv, 3 mg/kg): 867 nM; concentration at 4 h (in vivo; iv, 3 mg/kg): 293 nM; concentration at 8 h (in vivo; iv, 3 mg/kg): 89.7 nM; concentration at 24 h (in vivo; iv, 3 mg/kg): 6.59 nM; half-life (in vivo; iv, 3 mg/kg): 3.8 h; Cmax (in vivo; po, 10 mg/kg): 1290 nM; concentration at 0.25 h (in vivo; po, 10 mg/kg): 533 nM; concentration at 0.5 h (in vivo; po, 10 mg/kg): 706 nM; concentration at 1 h (in vivo; po, 10 mg/kg): 952 nM; concentration at 2 h (in vivo; po, 10 mg/kg): 1290 nM; concentration at 4 h (in vivo; po, 10 mg/kg): 661 nM; concentration at 6 h (in vivo; po, 10 mg/kg): 291 nM; concentration at 8 h (in vivo; po, 10 mg/kg): 187 nM; concentration at 24 h (in vivo; po, 10 mg/kg): 2.69 nM
2 | O=C(NCc1ccccc1)C(=O)[C@H](C[C@@H]1CCNC1=O)NC(=O)[C@@H]1[C@H]2CCC[C@H]2CN1C(=O)[C@@H](NC(=O)C(F)(F)F)C1CCCCC1 [Compound 2] | > 10000 nM | – | – | – | – | – | 368 nM | 11 nM | –
3 | CC(C)(C)NC(=O)C(=O)[C@H](C[C@@H]1CCNC1=O)NC(=O)[C@@H]1[C@H]2CCC[C@H]2CN1C(=O)[C@@H](NC(=O)C(F)(F)F)C1CCCCC1 [Compound 3] | > 10000 nM | 30.6 µM·h | 33 µM·h | 1.5 h | 32% | 5.4 h | 146 nM | 25 nM | Cl ([2]; iv, 3 mg/kg): 2.50 mL/min/kg; T1/2 ([2]; iv, 3 mg/kg): 6.24 h; Vdss ([2]; iv, 3 mg/kg): 1.27 L/kg; Cmax ([2]; po, 10 mg/kg): 4810 nM
4 | CC(C)(C)NC(=O)C(=O)[C@H](C[C@@H]1CCNC1=O)NC(=O)[C@@H]1[C@H]2CCC[C@H]2CN1C(=O)[C@@H](NC(=O)C(F)(F)F)C1CCC1 [Compound 4] | > 10000 nM | – | – | – | – | – | 823 nM | 104 nM | –
5 | CC(C)(C)NC(=O)C(=O)[C@H](C[C@@H]1CCNC1=O)NC(=O)[C@@H]1[C@H]2CCC[C@H]2CN1C(=O)[C@@H](NC(=O)C(F)(F)F)C1CCCC1 [Compound 5] | > 10000 nM | – | – | – | – | – | 368 nM | 50 nM | –
6 | CC1([C@H](NC(=O)C(F)(F)F)C(=O)N2C[C@@H]3CCC[C@@H]3[C@H]2C(=O)N[C@@H](C[C@@H]2CCNC2=O)C(=O)C(=O)NC2CCCC2)CCCCC1 [Compound 6] | – | – | – | – | – | – | – | 12 nM | –
7 | CC(C)(C)[C@H](NC(=O)C(F)(F)F)C(=O)N1C[C@H]2[C@@H]([C@H]1C(=O)N[C@H](C#N)CC1CCNC1=O)C2(C)C (stereo partly shown) [PF-07321332, reference compound] | – | 3.33 µM·h | 3.58 µM·h | 0.292 h | 32.7% | 1.1 h | – | – | Vd (in vivo; iv, 3 mg/kg): 0.456 L/kg; clearance (in vivo; iv, 3 mg/kg): 30.2 mL/min/kg; half-life (in vivo; iv, 3 mg/kg): 0.71 h; Cmax (in vivo; po, 10 mg/kg): 2720 nM
